Measurements taken from patent EP4029501A1, “COMBINATION OF POLYAROMATIC UREA DERIVATIVES AND GLUCOCORTICOID OR HDAC INHIBITOR FOR THE TREATMENT OF DISEASES OR CONDITIONS ASSOCIATED WITH MUSCLE CELLS AND/OR SATELLITE CELLS” (Anagenesis Biotechnologies, priority 2021, dated 2022).
Structures can show the parent of a compound that is named as a salt.

System: muscle progenitors derived from DMD hiPSC
Assay: Myotube assay: total myotube area per well (alpha-actinin staining)
Assay type: cell-based, human
Details: Homo sapiens, Myotube, 72 h, DMD or WT cell source not given; for Emax: efficacy, MA = normalized Myotube Area, 3 days incubation; for EC50: myogenic activity, half-maximal generation of myotubes, 10 points dose-response 1.5 nM to 30 µM, 3 days
Outline: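 DMD hiPSC-derived muscle progenitors (NCRM-1 background) plated at 3500 cells/well in K5 medium with 5 µM Y-27632, then exposed to compound at 1.5 nM–30 µM for 3 days at 37°C. Cells fixed on day 7, alpha-actinin-immunostained and total myotube area per well quantified; duplicates averaged, EC50 and normalized myotube area derived.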

EC50	SMILES	Emax
1000 to 5000 nM	CC(C)(C)c1cc(NC(=O)Nc2ccc(Oc3ccnc4[nH]c(=O)cnc34)cc2F)n(CCN2CCOCC2)n1 [(k), 1-(3-(tert-butyl)-1-(2-morpholinoethyl)-1 H-pyrazol-5-yl)-3-(2-fluoro-4-((3-oxo-3,4-dihydropyrido[2,3-b]pyrazin-8-yl)oxy)phenyl)urea]	50 to 75%
≥ 5000 nM	CSc1cc(Oc2ccnc(N(CCN(C)C)C(=O)OC(C)(C)C)c2)ccc1NC(=O)Nc1cc(C(C)(C)C)nn1-c1ccccc1 [(ch), tert-butyl (4-(4-(3-(3-(tert-butyl)-1-phenyl-1H-pyrazol-5-yl)ureido)-3-(methylthio)phenoxy)pyridin-2-yl)(2-(dimethylamino)ethyl)carbamate]	50 to 75%
1000 to 5000 nM	CSc1cc(Oc2ccnc3[nH]c(=O)cnc23)ccc1NC(=O)Nc1cc(C(C)(C)C)on1 [(dh), 1-(5-(tert-butyl)isoxazol-3-yl)-3-(2-(methylthio)-4-((3-oxo-3,4-dihydropyrido[2,3-b]pyrazin-8-yl)oxy)phenyl)urea]	≥ 75%
500 to 1000 nM	CSc1cc(Oc2ccnc3[nH]c(=O)cnc23)ccc1NC(=O)Nc1cc(C(C)(C)C)nn1-c1ccc(OCCN2CCOCC2)cc1 [(cf), 1-(3-(tert-butyl)-1-(4-(2-morpholinoethoxy)phenyl)-1 H-pyrazol-5-yl)-3-(2-(methylthio)-4-((3-oxo-3,4-dihydropyrido[2,3-b]pyrazin-8-yl)oxy)phenyl)urea]	≥ 75%
500 to 1000 nM	CSc1cc(Oc2ccnc(NC(=O)CO)c2)ccc1NC(=O)Nc1cc(C(C)(C)C)nn1-c1ccccc1 [(dq), N-(4-(4-(3-(3-(tert-butyl)-1-phenyl-1H-pyrazol-5-yl)ureido)-3-(methylthio)phenoxy)pyridin-2-yl)-2-hydroxyacetamide]	≥ 75%
< 500 nM	CCOC(=O)Nc1cc(Oc2ccc(NC(=O)Nc3cc(C(C)(C)C)nn3-c3ccccc3)c3ccccc23)ccn1 [(da), ethyl (4-((4-(3-(3-(tert-butyl)-1-phenyl-1 H-pyrazol-5-yl)ureido)naphthalen-1-yl)oxy)pyridin-2-yl)carbamate]	≥ 75%
< 500 nM	CCOC(=O)Nc1cc(Oc2ccc(NC(=O)Nc3cc(C(C)(C)C)on3)c(SC)c2)ccn1 [(di), ethyl (4-(4-(3-(5-(tert-butyl)isoxazol-3-yl)ureido)-3-(methylthio)phenoxy)pyridin-2-yl)carbamate]	≥ 75%
≥ 5000 nM	CSc1cc(Oc2cccc3c2CCC(=O)N3)ccc1NC(=O)Nc1cc(C(C)(C)C)nn1-c1ccccc1 [(ci), 1-(3-(tert-butyl)-1-phenyl-1H-pyrazol-5-yl)-3-(2-(methylthio)-4-((2-oxo-1,2,3,4-tetrahydroquinolin-5-yl)oxy)phenyl)urea]	25 to 50%
< 500 nM	CCOC(=O)Nc1cc(Oc2ccc(NC(=O)Nc3cc(C(C)(C)C)no3)c3ccccc23)ccn1 [(db), ethyl (4-((4-(3-(3-(tert-butyl)isoxazol-5-yl)ureido)naphthalen-1-yl)oxy)pyridin-2-yl)carbamate]	≥ 75%
500 to 1000 nM	CSc1cc(Oc2ccnc3c2OCCN3)ccc1NC(=O)Nc1cc(C(C)(C)C)nn1-c1ccccc1 [(cy), 1-(3-(tert-butyl)-1-phenyl-1H-pyrazol-5-yl)-3-(4-((3,4-dihydro-2H-pyrido[3,2-b][1,4]oxazin-8-yl)oxy)-2-(methylthio)phenyl)urea]	≥ 75%
500 to 1000 nM	CC(C)(C)c1cc(NC(=O)Nc2ccc(Oc3ccnc4[nH]c(=O)cnc34)cc2F)n(-c2cccnc2)n1 [(l), 1-(3-(tert-butyl)-1-(pyridin-3-yl)-1 H-pyrazol-5-yl)-3-(2-fluoro-4-((3-oxo-3,4-dihydropyrido[2,3-b]pyrazin-8-yl)oxy)phenyl)urea]	50 to 75%
< 500 nM	CSc1cc(Oc2ccnc3[nH]c(=O)cnc23)ccc1NC(=O)Nc1cc(C(C)(C)C)nn1-c1ccc(C#N)cc1 [(cc), 1-(3-(tert-butyl)-1-(4-cyanophenyl)-1H-pyrazol-5-yl)-3-(2-(methylthio)-4-((3-oxo-3,4-dihydropyrido[2,3-b]pyrazin-8-yl)oxy)phenyl)urea]	≥ 75%
500 to 1000 nM	CSc1cc(Oc2ccnc(NCCN(C)C)c2)ccc1NC(=O)Nc1cc(C(C)(C)C)nn1-c1ccccc1 [(ck), 1-(3-(tert-butyl)-1-phenyl-1 H-pyrazol-5-yl)-3-(4-((2-((2-(dimethylamino)ethyl)amino)pyridin-4-yl)oxy)-2-(methylthio)phenyl)urea hydrochloride]	≥ 75%

Continued, compound first:

SMILES	EC50	Emax
CC(C)c1cc(NC(=O)Nc2ccc(Oc3ccnc4[nH]c(=O)cnc34)cc2F)n(-c2ccccc2)n1 [(b), 1-(2-fluoro-4-((3-oxo-3,4-dihydropyrido[2,3-b]pyrazin-8-yl)oxy)phenyl)-3-(3-isopropyl-1-phenyl-1 H-pyrazol-5-yl)urea]	≥ 5000 nM	25 to 50%
CSc1cc(Oc2ccnc(NC(C)=O)c2)ccc1NC(=O)Nc1cc(C(C)(C)C)nn1-c1ccccc1 [(aq), N-(4-(4-(3-(3-(tert-butyl)-1-phenyl-1H-pyrazol-5-yl)ureido)-3-(methylthio)phenoxy)pyridin-2-yl)acetamide]	500 to 1000 nM	≥ 75%
CSc1cc(Oc2ccnc(NC(=O)OC(C)(C)C)c2)ccc1NC(=O)Nc1cc(C(C)(C)C)nn1-c1ccccc1 [(bi), tert-butyl (4-(4-(3-(3-(tert-butyl)-1-phenyl-1H-pyrazol-5-yl)ureido)-3-(methylthio)phenoxy)pyridin-2-yl)carbamate]	< 500 nM	≥ 75%
CSc1cc(Oc2ccnc3c2CCC(=O)N3)ccc1NC(=O)Nc1cc(C(C)(C)C)nn1-c1cccc(Cl)c1 [(bz), 1-(3-(tert-butyl)-1-(3-chlorophenyl)-1H-pyrazol-5-yl)-3-(2-(methylthio)-4-((7-oxo-5,6,7,8-tetrahydro-1,8-naphthyridin-4-yl)oxy)phenyl)urea]	< 500 nM	≥ 75%
CSc1cc(Oc2ccnc(N)c2)ccc1NC(=O)Nc1cc(C(C)(C)C)nn1-c1ccccc1 [(bj), 1-(4-((2-aminopyridin-4-yl)oxy)-2-(methylthio)phenyl)-3-(3-(tert-butyl)-1-phenyl-1H-pyrazol-5-yl)urea hydrochloride]	≥ 5000 nM	≥ 75%
CNC(=O)c1cc(Oc2ccc(NC(=O)Nc3cc(C(C)(C)C)nn3-c3ccc4ncccc4c3)c3ccccc23)ccn1 [(bf), 4-((4-(3-(3-(tert-butyl)-1-(quinolin-6-yl)-1 H-pyrazol-5-yl)ureido)naphthalen-1-yl)oxy)-N-methylpicolinamide]	1000 to 5000 nM	≥ 75%
CSc1cc(Oc2ccnc3[nH]c(=O)cnc23)ccc1NC(=O)Nc1cc(C(C)(C)C)nn1-c1cccc(Cl)c1 [(as), 1-(3-(tert-butyl)-1-(3-chlorophenyl)-1H-pyrazol-5-yl)-3-(2-(methylthio)-4-((3-oxo-3,4-dihydropyrido[2,3-b]pyrazin-8-yl)oxy)phenyl)urea]	< 500 nM	≥ 75%
CNC(=O)c1ccc(Oc2cccc(NC(=O)Nc3cc(C(C)(C)C)nn3-c3ccccc3)c2)cn1 [(ab), 5-(3-(3-(3-(tert-butyl)-1-phenyl-1H-pyrazol-5-yl)ureido)phenoxy)-N-methylpicolinamide]	500 to 1000 nM	50 to 75%
CSc1cc(Oc2ccnc3[nH]c(=O)cnc23)ccc1NC(=O)Nc1cc(C(C)(C)C)no1 [(bx), 1-(3-(tert-butyl)isoxazol-5-yl)-3-(2-(methylthio)-4-((3-oxo-3,4-dihydropyrido[2,3-b]pyrazin-8-yl)oxy)phenyl)urea]	500 to 1000 nM	≥ 75%
CSc1cc(Oc2ccnc(NC(=O)CN(C)C(=O)OC(C)(C)C)c2)ccc1NC(=O)Nc1cc(C(C)(C)C)nn1-c1ccccc1 [(bp), tert-butyl (2-((4-(4-(3-(3-(tert-butyl)-1-phenyl-1H-pyrazol-5-yl)ureido)-3-(methylthio)phenoxy)pyridin-2-yl)amino)-2-oxoethyl)(methyl)carbamate]	< 500 nM	≥ 75%
CC(C)(C)c1cc(NC(=O)Nc2ccc(Oc3ccc(F)cc3)cc2F)n(-c2ccccc2)n1 [(af), 1-(3-(tert-butyl)-1-phenyl-1 H-pyrazol-5-yl)-3-(2-fluoro-4-(4-fluorophenoxy)phenyl)urea]	1000 to 5000 nM	25 to 50%
CCC(C)c1cc(NC(=O)Nc2ccc(Oc3ccnc4[nH]c(=O)cnc34)cc2F)n(-c2ccccc2)n1 (centres unmarked) [(c), 1-(3-(sec-butyl)-1-phenyl-1 H-pyrazol-5-yl)-3-(2-fluoro-4-((3-oxo-3,4-dihydropyrido[2,3-b]pyrazin-8-yl)oxy)phenyl)urea]	≥ 5000 nM	50 to 75%
CC(=O)Nc1cc(Oc2ccc(NC(=O)Nc3cc(C(C)(C)C)nn3-c3ccccc3)c(F)c2)ccn1 [(ae), N-(4-(4-(3-(3-(tert-butyl)-1-phenyl-1H-pyrazol-5-yl)ureido)-3-fluorophenoxy)pyridin-2-yl)acetamide]	≥ 5000 nM	50 to 75%
CSc1cc(Oc2ccnc3[nH]c(=O)cnc23)ccc1NC(=O)Nc1cc(C(C)(C)C)nn1-c1ccc(Cl)cc1 [(ao), 1-(3-(tert-butyl)-1-(4-chlorophenyl)-1H-pyrazol-5-yl)-3-(2-(methylthio)-4-((3-oxo-3,4-dihydropyrido[2,3-b]pyrazin-8-yl)oxy)phenyl)urea]	≥ 5000 nM	≥ 75%
CSc1cc(Oc2ccnc3[nH]c(=O)cnc23)ccc1NC(=O)Nc1cc(C(C)(C)C)nn1CCCN1CCOCC1 [(bh), 1-(3-(tert-butyl)-1-(3-morpholinopropyl)-1 H-pyrazol-5-yl)-3-(2-(methylthio)-4-((3-oxo-3,4-dihydropyrido[2,3-b]pyrazin-8-yl)oxy)phenyl)urea]	≥ 5000 nM	≥ 75%
